Reference: publication PMC5031918 (Journal of Antimicrobial Chemotherapy, 2016)
Entries after “also recorded” stand apart in the source; their conditions may differ. Like-named read-outs stand apart in the source and are kept apart here. Blank lines part the entries; values can stand above or below the compound they belong to.

Legend:
[1] = test system: CEM-WT (CEM-CCRF) cells; experiment: Calcein-AM fluorescence accumulation assay, flow cytometry, CEM-WT cells; type: cell-based, human; conditions: antiviral drug at 100 μM, calcein-AM 0.25 μM
[2] = target: T1, MRP1 (ABCC1), CEM-MRP1 cells (Homo sapiens, UniProt P33527); experiment: Calcein-AM fluorescence accumulation assay, flow cytometry, CEM-MRP1 cells; type: cell-based; conditions: antiviral drug at 100 μM, calcein-AM 0.25 μM
T1 sequence (P33527 whole entry): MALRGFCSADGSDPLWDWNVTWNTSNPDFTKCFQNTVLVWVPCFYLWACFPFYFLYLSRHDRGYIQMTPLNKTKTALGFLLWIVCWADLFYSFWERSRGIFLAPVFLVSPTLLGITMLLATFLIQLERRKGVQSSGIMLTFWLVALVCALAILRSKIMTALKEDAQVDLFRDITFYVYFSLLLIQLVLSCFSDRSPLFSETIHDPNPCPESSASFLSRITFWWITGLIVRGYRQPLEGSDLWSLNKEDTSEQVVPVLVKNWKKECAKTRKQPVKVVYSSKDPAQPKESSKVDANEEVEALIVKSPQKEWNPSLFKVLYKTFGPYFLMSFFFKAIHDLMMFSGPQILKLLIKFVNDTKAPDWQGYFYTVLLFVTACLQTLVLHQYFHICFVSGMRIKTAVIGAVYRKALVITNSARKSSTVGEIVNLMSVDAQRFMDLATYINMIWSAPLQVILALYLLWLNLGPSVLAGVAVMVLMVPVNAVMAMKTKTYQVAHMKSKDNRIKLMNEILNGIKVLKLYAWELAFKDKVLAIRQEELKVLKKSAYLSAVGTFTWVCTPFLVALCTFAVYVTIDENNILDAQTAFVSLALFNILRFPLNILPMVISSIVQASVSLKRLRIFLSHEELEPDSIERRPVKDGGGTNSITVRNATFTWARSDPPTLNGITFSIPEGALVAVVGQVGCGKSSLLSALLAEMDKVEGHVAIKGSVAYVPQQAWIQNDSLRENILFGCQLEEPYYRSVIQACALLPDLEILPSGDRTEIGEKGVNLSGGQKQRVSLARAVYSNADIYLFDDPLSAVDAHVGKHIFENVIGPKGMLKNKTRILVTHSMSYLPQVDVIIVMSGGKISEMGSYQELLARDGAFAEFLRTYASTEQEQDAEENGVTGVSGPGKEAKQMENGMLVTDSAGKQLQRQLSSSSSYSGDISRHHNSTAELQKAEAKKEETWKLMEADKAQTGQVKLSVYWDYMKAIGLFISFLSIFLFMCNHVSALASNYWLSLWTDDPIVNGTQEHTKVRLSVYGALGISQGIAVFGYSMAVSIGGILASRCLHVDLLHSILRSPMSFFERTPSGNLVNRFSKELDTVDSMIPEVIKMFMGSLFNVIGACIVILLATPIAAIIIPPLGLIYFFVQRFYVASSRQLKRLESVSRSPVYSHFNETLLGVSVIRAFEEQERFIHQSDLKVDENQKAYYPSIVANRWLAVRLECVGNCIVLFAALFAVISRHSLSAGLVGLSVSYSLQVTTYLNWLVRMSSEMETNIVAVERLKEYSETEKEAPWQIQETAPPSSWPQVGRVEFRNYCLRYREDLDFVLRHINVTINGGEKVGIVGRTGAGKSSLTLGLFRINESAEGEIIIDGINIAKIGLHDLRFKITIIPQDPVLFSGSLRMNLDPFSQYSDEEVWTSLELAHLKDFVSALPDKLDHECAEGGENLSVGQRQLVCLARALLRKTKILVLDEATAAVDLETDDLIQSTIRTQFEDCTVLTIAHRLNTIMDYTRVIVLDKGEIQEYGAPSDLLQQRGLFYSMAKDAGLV

[3] = test system: primary CD4+ T cells; experiment: Calcein accumulation/efflux in primary CD4+ T cells, flow cytometry; type: cell-based, human
[4] = test system: CEM-WT cells; experiment: [3H]raltegravir cellular accumulation ratio; type: in vitro ADME, human; conditions: 30 min; for Effect of efflux inhibitor on [3H]raltegravir CAR: MK571 100 μM, XR9051 10 μM or 1 μM (Figure 1a); for Effect of 100 μM cold drug (cis inhibitor) on [3H]raltegravir CAR / CAR of raltegravir: [3H]raltegravir 1 μM
[5] = target: T2, P-gp (ABCB1), CEM-P-gp cells (Homo sapiens, UniProt P08183); experiment: [3H]raltegravir cellular accumulation ratio; type: in vitro ADME; conditions: 30 min
T2 sequence (P08183 whole entry): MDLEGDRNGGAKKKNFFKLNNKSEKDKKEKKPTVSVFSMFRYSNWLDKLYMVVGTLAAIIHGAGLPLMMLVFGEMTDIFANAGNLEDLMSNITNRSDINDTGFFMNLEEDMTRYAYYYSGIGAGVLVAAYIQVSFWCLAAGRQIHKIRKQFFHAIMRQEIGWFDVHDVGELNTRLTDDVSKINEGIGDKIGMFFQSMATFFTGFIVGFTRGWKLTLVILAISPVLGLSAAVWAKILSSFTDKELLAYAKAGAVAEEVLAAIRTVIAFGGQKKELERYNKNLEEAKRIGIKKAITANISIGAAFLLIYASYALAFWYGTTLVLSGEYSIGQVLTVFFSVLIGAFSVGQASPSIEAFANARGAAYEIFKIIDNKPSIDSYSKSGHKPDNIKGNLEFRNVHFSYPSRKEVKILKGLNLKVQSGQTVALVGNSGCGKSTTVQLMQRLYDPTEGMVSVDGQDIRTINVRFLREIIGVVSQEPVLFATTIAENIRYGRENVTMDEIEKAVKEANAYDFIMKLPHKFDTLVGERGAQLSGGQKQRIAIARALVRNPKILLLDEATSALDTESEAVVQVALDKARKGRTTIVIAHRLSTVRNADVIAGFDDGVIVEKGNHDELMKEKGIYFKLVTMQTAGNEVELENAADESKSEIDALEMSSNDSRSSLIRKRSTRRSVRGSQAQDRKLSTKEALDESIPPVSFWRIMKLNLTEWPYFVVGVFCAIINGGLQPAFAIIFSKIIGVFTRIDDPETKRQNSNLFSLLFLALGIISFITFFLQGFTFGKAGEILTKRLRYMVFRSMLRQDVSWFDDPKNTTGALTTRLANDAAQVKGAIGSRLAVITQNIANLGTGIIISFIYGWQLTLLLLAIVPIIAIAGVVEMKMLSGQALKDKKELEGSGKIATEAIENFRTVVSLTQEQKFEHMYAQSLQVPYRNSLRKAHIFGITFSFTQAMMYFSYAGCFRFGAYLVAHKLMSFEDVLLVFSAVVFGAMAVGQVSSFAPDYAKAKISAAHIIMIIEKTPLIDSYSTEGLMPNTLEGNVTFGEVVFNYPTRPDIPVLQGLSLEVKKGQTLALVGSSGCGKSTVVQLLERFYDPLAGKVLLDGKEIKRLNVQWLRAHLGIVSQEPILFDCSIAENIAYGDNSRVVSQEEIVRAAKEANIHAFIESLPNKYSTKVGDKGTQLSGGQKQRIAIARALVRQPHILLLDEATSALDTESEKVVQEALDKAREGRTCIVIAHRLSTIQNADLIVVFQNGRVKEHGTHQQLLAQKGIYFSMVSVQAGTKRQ

[6] = target: P-gp, primary CD3+CD4+ T cells (Homo sapiens, UniProt P08183); type: in vitro ADME; conditions: XR9051 1 μM, P = 0.017
Sequence of P-gp, primary CD3+CD4+ T cells (P08183 whole entry): as above

[7] = target: T1, MRP1 (ABCC1), CEM-MRP1 cells; experiment: [3H]raltegravir cellular accumulation ratio; conditions: 30 min; for Effect of 100 μM cold drug (cis inhibitor) on [3H]raltegravir CAR: [3H]raltegravir 1 μM
[8] = target: T1, MRP1 (ABCC1), CEM-MRP1 cells; experiment: [3H]ritonavir cellular accumulation ratio; type: in vitro ADME; conditions: for Increase of the CAR of [3H]ritonavir by 100 μM cold drug: [3H]ritonavir 1 μM, 30 min
[9] = target: T2, P-gp (ABCB1), CEM-P-gp cells; experiment: [3H]ritonavir cellular accumulation ratio; type: in vitro ADME; conditions: reversan 10 μM, P = 0.0021

Fluorescence ratio (MFI treated/MFI mock cells), calcein [2]: 1.23
Compound: Cc1ccnc2c1NC(=O)c1cccnc1N2C1CC1 [nevirapine]
Fluorescence ratio (MFI treated/MFI mock cells), calcein [1]: 0.92

Compound: COc1ccc2c3c([nH]c2c1)[C@H](CC(C)C)N1C(=O)[C@H](CCC(=O)OC(C)(C)C)NC(=O)[C@@H]1C3 [Ko143]
Inhibition of calcein accumulation ([3]; primary CD4+ T cells, low doses (<1 μM) of Ko143, data not shown): null inhibition

Effect of efflux inhibitor on [3H]raltegravir CAR ([5]; CEM-P-gp, XR9051 10 μM or 1 μM (Figure 1a)): significantly increased accumulation | Effect of XR9051 on reduced [3H]raltegravir accumulation ([6]; CD3+CD4+P-gp^high cells): significantly reverse this effect | Effect of XR9051 on reduced [3H]raltegravir accumulation ([6]; total unsorted PBMCs): could also be reversed | Effect of efflux inhibitor on [3H]raltegravir CAR ([7]; CEM-MRP1, MK571 100 μM, XR9051 10 μM): neither MK571 nor XR9051 affected
Compound: XR9051
Effect of efflux inhibitor on [3H]raltegravir CAR [4]: did not significantly alter; also recorded: did not affect | Effect on activity of P-gp^high cells (calcein efflux) ([3]; non-stimulated CD4+ cells, XR9051 1 μM during the 2 h efflux time): remarkably inhibited

Fluorescence ratio (MFI treated/MFI mock cells), calcein [2]: 4.20
Compound: Cc1cccc(C)c1OCC(=O)N[C@@H](Cc1ccccc1)[C@@H](O)C[C@H](Cc1ccccc1)NC(=O)[C@H](C(C)C)N1CCCNC1=O [lopinavir]
Fluorescence ratio (MFI treated/MFI mock cells), calcein [1]: 0.60

Effect of reversan on reduced [3H]ritonavir accumulation ([8]; reversan 10 μM, P = 0.037): reversed in part | Effect of reversan on reduced [3H]ritonavir accumulation [9]: reversed in part
Compound: O=C(NCCCN1CCOCC1)c1cnn2c(-c3ccccc3)cc(-c3ccccc3)nc12 [reversan]

Fluorescence ratio (MFI treated/MFI mock cells), calcein [2]: 3.94 | Effect of 100 μM cold drug (cis inhibitor) on [3H]raltegravir CAR ([7]; CEM-MRP1): did not affect
Compound: CC(C)(C)NC(=O)[C@@H]1C[C@@H]2CCCC[C@@H]2CN1C[C@@H](O)[C@H](Cc1ccccc1)NC(=O)[C@H](CC(N)=O)NC(=O)c1ccc2ccccc2n1 [saquinavir]
Fluorescence ratio (MFI treated/MFI mock cells), calcein [1]: 0.77 | Effect of 100 μM cold drug (cis inhibitor) on [3H]raltegravir CAR [4]: did not affect | Effect of 100 μM cold drug (cis inhibitor) on [3H]raltegravir CAR ([5]; CEM-P-gp, [3H]raltegravir 1 μM): significantly competed with raltegravir efflux

Fluorescence ratio (MFI treated/MFI mock cells), calcein [2]: 2.54
Compound: COC(=O)N[C@H](C(=O)N[C@@H](Cc1ccccc1)[C@@H](O)CN(Cc1ccc(-c2ccccn2)cc1)NC(=O)[C@@H](NC(=O)OC)C(C)(C)C)C(C)(C)C [atazanavir]
Fluorescence ratio (MFI treated/MFI mock cells), calcein [1]: 0.63

Increase of the CAR of [3H]ritonavir by 100 μM cold drug [8]: 25% | Effect of 100 μM cold drug (cis inhibitor) on [3H]raltegravir CAR ([7]; CEM-MRP1): did not affect
Compound: CC(C)c1nc(CN(C)C(=O)N[C@H](C(=O)N[C@@H](Cc2ccccc2)C[C@H](O)[C@H](Cc2ccccc2)NC(=O)OCc2cncs2)C(C)C)cs1 [ritonavir]
Effect of 100 μM cold drug (cis inhibitor) on [3H]raltegravir CAR [4]: did not affect

Fluorescence ratio (MFI treated/MFI mock cells), calcein [2]: 4.38
Compound: O=C1Nc2ccc(Cl)cc2[C@@](C#CC2CC2)(C(F)(F)F)O1 [efavirenz]
Fluorescence ratio (MFI treated/MFI mock cells), calcein [1]: 0.94

Fluorescence ratio (MFI treated/MFI mock cells), calcein [2]: 3.49
Compound: CC(C)CN(C[C@@H](O)[C@H](Cc1ccccc1)NC(=O)O[C@H]1CCOC1)S(=O)(=O)c1ccc(N)cc1 [amprenavir]
Fluorescence ratio (MFI treated/MFI mock cells), calcein [1]: 0.87

Fluorescence ratio (MFI treated/MFI mock cells), calcein [2]: 2.11
Compound: CC(C)(C)NC(=O)[C@@H]1CN(Cc2cccnc2)CCN1C[C@@H](O)C[C@@H](Cc1ccccc1)C(=O)N[C@H]1c2ccccc2C[C@H]1O [indinavir]
Fluorescence ratio (MFI treated/MFI mock cells), calcein [1]: 1.28

Compound: CN(C)C(=O)CCSC(SCCC(=O)O)c1cccc(/C=C/c2ccc3ccc(Cl)cc3n2)c1 (stereo not shown) [MK571]
Effect of efflux inhibitor on [3H]raltegravir CAR [4]: did not affect

CAR of raltegravir ([4]; accumulation experiments (Figure 1b), normalized to 100%): 3.04 ± 0.62 | CAR of raltegravir ([4]; time-course (Figure 1a)): 3.12 ± 0.12 | CAR of raltegravir ([5]; CEM-P-gp, [3H]raltegravir 1 μM, co-incubation with XR9051 1 μM, P = 0.0025): 2.46 ± 0.10 | Reduction in intracellular raltegravir accumulation with respect to CEM-WT ([5]; untreated CEM-P-gp): 52% | CAR raltegravir P-gp/CAR raltegravir WT ([5]; untreated cells, P < 0.0001): 0.48 | Increase of the CAR of [3H]ritonavir by 100 μM cold drug [8]: did not inhibit | Effect of 100 μM cold drug (cis inhibitor) on [3H]raltegravir CAR ([7]; CEM-MRP1): no changes | Reduction in intracellular raltegravir accumulation with respect to control CEM-WT cells ([7]; untreated CEM-MRP1): > 30% | CAR raltegravir MRP1/CAR raltegravir WT ([7]; untreated cells, P < 0.0001): 0.64
Compound: Cc1nnc(C(=O)NC(C)(C)c2nc(C(=O)NCc3ccc(F)cc3)c(O)c(=O)n2C)o1 [raltegravir]
Effect of 100 μM cold drug (cis inhibitor) on [3H]raltegravir CAR [4]: no changes
